# According to ChEMBL document CHEMBL1201862, “PubChem BioAssay data set” (2004):
# Calls of active or inactive are those of the source.
# Key:
# CHO = CHO cell viability loss, potency – luminescence, cytotoxicity control for TLR9-MyD88 binding inhibitor project, dose response (AID 588339); format: functional, cell-based, hamster; settings: Cricetulus griseus;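 also: CHO cells stably coexpressing TLR9 and MyD88 fusions from primary screen; compound exposure lasted 48 hours before viability readout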
# Beta Lactamase = Beta Lactamase (Pseudomonas aeruginosa, UniProt Q932Y6); test: BLA reporter interference, concentration series – BLA reporter cells, FRET fluorescence, artefact control for TLR9-MyD88 binding inhibitor project, dose response (AID 588341); format: cell-based;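 also: cell based assay in CHO-K1 cells stably expressing beta-lactamase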
# BJ [1] = test: BJ-TERT fibroblast viability loss – cell-based, RAS-independent, luminescence, dose response (AID 1933); format: functional; settings: Homo sapiens
# BJ [2] = test: cells; format: functional, cell-based; settings: Homo sapiens
# [3] = Trypanosoma cruzi growth suppression in host cells – NIH3T3 host cells, beta-gal luminescence, confirmation (AID 2044); format: functional, cell-based;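 also: intracellular parasites grown in NIH/3T3 mouse fibroblasts as host cells; luminescent beta-galactosidase reporter signal from transgenic T. cruzi replicating inside host cells; inhibitors lower the luminescence signal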
# [4] = NIH3T3 cell viability loss – ATP luminescence, mouse fibroblasts, counter-screen, dose response (AID 2010); format: functional, cell-based;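 also: cells exposed to compound for about 90 hours before reading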
# BJ [5] = test: BJ-TERT-LT-ST fibroblast viability loss – cell-based, RAS-independent, luminescence, dose response (AID 1935); format: functional; settings: Homo sapiens;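 also: BJ fibroblasts immortalized with TERT plus LT and ST oncogenes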
# [6] = DRD fibroblast viability loss – cell-based, non-viral oncogenic, luminescence, dose response (AID 1934); format: functional; settings: Homo sapiens
# [7] = Luminescence Cell-Based Dose Retest to Confirm Inhibitors of Cancer Stem Cells. [Related pubchem assays (depositor defined):AID2717, AID2721]; format: functional; settings: Homo sapiens
# [8] = viability loss of HMLE_sh_eGFP cells – cell-based, luminescence, counter-screen for HMLE_sh_ECad selective toxicity project, dose response (AID 463074); format: functional, Homo sapiens;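 also: HMLE human mammary epithelial cells expressing control shRNA against eGFP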
# [9] = target: UDP-galactopyranose mutase (Mycobacterium tuberculosis, UniProt P9WIQ1); test: Inhibitors of Mycobacterium tuberculosis UDP-galactopyranose mutase (UGM) enzyme Measured in Biochemical System Using Plate Reader - 2105-02_Inhibitor_Dose_CherryPick_Activity. [Related pubchem assays (depositor defined):AID504439]
# [10] = T. cruzi infection blockers in NIH3T3 cells – beta-gal luminescence, NIH3T3 host cells, confirmation (AID 2630); format: functional, cell-based; settings: Mus musculus
# Candida albicans [11] = test: fluconazole-resistant Candida strain growth inhibitors – CaCi-8 strain, dry powder, set 4, dose response (AID 488950); format: functional, organism-based
# Candida albicans [12] = test: resistant Candida growth with fluconazole co-treatment – CaCi-8 strain, Alamar Blue, dry powder, set 2, dose response (AID 488909); format: functional, organism-based
# HEK293 = test: HEK293T cell viability loss, resazurin readout – resazurin fluorescence, cytotoxicity control for NF-kB activator project, SAR follow-up (AID 493251); format: functional, cell-based; settings: Homo sapiens
# [13] = target: T1, sn-1-specific diacylglycerol lipase ABHD11 (Mus musculus, UniProt Q8K4F5); test: Late stage assay provider results from the probe development effort to identify inhibitors of LYPLA1: fluorescence-based cell-based gel-based Activity-Based Protein Profiling (ABPP) IC50 for anti-target ABHD11. [Related pubchem assays (depositor defined):AID2174, AID2177, AID2202, AID2203, AID2232, AID2233, AID493105, AID493108, AID493109, AID493110, AID493111, AID493154, AID493161, AID504892]; format: functional
# [14] = target: T1, sn-1-specific diacylglycerol lipase ABHD11; test: Late stage assay provider results from the probe development effort to identify inhibitors of LYPLA1 and LYPLA2: Gel-based Activity-Based Protein Profiling (ABPP) IC50 for off-target ABHD11. [Related pubchem assays (depositor defined):AID2174, AID2202, AID2203, AID2233, AID504482, AID504498, AID504505, AID504507, AID504510, AID504520, AID504522, AID504892]; format: functional
# [15] = target: Voltage-gated inwardly rectifying potassium channel KCNH2 (Homo sapiens, UniProt Q12809); settings: Potency;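 also: confirmatory quantitative high-throughput screen measuring inhibition of hERG channel activity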
# Voltage-gated inwardly rectifying potassium channel KCNH2, sequence (Q12809 whole entry): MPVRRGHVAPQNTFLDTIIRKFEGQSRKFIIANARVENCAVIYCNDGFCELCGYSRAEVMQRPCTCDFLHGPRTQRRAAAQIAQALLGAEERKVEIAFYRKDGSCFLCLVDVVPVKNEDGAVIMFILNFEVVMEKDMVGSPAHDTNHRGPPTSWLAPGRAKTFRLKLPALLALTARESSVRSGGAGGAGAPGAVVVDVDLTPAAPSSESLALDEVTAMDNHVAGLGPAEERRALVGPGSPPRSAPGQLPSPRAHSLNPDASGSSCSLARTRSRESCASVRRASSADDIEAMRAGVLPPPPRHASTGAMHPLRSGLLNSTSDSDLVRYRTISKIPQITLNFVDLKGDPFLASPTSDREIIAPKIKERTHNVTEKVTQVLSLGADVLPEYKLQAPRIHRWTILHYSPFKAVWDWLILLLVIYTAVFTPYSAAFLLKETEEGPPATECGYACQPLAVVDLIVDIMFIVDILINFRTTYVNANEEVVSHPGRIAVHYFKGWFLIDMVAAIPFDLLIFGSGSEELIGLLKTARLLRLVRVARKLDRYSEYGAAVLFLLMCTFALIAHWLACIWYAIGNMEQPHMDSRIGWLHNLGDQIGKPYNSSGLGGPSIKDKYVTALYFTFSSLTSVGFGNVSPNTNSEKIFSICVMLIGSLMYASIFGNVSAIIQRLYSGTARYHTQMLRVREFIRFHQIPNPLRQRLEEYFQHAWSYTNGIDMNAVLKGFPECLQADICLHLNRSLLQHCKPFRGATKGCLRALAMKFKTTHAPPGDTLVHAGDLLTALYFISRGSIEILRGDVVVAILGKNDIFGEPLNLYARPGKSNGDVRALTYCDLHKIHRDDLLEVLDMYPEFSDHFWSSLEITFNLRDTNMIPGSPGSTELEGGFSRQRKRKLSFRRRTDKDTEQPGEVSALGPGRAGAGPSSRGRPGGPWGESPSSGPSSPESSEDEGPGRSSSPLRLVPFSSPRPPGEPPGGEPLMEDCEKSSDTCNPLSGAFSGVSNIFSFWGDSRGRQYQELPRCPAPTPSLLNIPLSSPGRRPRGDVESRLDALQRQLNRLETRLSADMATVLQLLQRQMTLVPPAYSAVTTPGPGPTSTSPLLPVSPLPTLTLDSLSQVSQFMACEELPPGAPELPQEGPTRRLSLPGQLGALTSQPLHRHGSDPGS
# T1 sequence (Q8K4F5 whole entry): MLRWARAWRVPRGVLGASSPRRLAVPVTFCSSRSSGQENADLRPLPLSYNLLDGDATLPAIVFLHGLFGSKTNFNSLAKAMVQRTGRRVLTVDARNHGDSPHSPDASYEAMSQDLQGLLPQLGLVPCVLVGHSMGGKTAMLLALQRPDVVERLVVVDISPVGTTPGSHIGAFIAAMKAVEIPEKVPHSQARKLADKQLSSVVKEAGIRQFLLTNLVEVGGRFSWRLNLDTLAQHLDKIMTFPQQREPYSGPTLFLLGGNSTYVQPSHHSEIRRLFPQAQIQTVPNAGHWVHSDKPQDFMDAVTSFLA
# Beta Lactamase, sequence (Q932Y6 whole entry): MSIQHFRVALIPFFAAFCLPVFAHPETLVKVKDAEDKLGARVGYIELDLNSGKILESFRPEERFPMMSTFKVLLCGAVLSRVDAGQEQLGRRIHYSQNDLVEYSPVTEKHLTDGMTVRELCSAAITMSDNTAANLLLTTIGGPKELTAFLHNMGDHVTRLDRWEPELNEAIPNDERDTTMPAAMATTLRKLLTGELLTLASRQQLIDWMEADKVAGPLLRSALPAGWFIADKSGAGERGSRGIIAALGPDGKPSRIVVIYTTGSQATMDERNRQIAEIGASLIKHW
# UDP-galactopyranose mutase, sequence (P9WIQ1 whole entry): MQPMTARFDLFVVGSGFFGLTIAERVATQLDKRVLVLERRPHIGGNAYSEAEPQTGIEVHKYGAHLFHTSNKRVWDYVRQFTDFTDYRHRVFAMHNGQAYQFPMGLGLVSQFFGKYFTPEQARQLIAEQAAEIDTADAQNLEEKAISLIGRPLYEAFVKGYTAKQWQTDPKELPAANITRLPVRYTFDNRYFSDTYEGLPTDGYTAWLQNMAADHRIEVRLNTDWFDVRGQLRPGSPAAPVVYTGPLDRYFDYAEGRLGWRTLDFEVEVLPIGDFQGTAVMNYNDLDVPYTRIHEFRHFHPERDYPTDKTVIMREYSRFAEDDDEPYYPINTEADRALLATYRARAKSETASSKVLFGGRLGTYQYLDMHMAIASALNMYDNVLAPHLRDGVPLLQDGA
structure (smiles),measurement,setting,value
Cc1nn(C)c(C)c1N1C(=O)c2cccc3c(Br)ccc(c23)C1=O,IC50,CHO,7.3 µM (active)
same,IC50,Beta Lactamase,5.72 µM (active)
CN1CCN(c2ccc(C(=O)c3ccccc3)cc2[N+](=O)[O-])CC1,EC50,BJ [1],> 150 µM (not active)
same,EC50,BJ [2],> 150 µM (not active)
same,EC50,[3],0.399 µM (active)
same,EC50,[4],> 60 µM (not active)
same,EC50,BJ [5],> 150 µM (inconclusive)
same,EC50,[6],> 150 µM (not active)
same,AC50,[7],2.09 µM (active)
same,AC50,[8],77.6 µM (active)
O=C(COC(=O)c1ccc([N+](=O)[O-])o1)NC1CCCC1,AC50,[9],> 500 µM (inactive)
Cc1ccc(NC(=O)CCC(=O)N/N=C/c2ccc(C)o2)c(C)c1,EC50,[10],195 µM (inactive)
O=C(c1ccc(Cl)cc1)N1CCCN(c2ccnc3cc(Cl)ccc23)CC1,AC50,Candida albicans [11],12.7 µM (active)
same,AC50,Candida albicans [12],< 0.195 µM (active)
Cc1oc(-c2ccccc2)nc1CSCC(=O)NCc1ccco1,IC50,HEK293,> 80 µM (inactive)
CCC1CCCCN1C(=O)n1ncc(C(O)(c2ccccc2)c2ccccc2)n1 (stereo not drawn),IC50,[13],0.000678 µM (active)
same,IC50,[14],0.015 µM (active)
C(=C/c1ccccc1)/c1ccccc1,AC50,[15],22.4 µM (inconclusive)
